Where two headings read alike, the source gives them in different places.
Columns and labels:
[1] = tested on: LAPC4 prostate cancer cells, which express the AKT1 E17K allele; test: Antiproliferative effects in LAPC4 cells (CellTiter Glo, 72 h); assay type: cell-based; settings: Homo sapiens, LAPC4, 72 h, read-out: LAPC4 proliferation IC50
Description: Antiproliferative Effects in LAPC4 Cells.
LAPC4 prostate cancer cells (Klein, K. A. et al. Nat Med 1997, 3, 402-408), which express the AKT1 E17K allele, were grown in IMDM media (Hyclone) supplemented with 12% FBS+1% P/S. To assess compound effects on growth, 1,000 cells/well were seeded in 384 well assay plates, incubated with compound dilutions dissolved in DMSO. After 72 h, intracellular ATP content was assessed with CellTiter Glo reagent (Promega) according to the manufacturer's instructions. IC50 values were calculated by fitting luminescence values to a log(inhibitor) vs. response Hill equation.

[2] = target: T1, AKT2 (Homo sapiens, UniProt P31751); test: Live cell AKT2 target engagement by NanoBRET competitive probe displacement in HEK293 cells; assay type: binding; settings: 2 h at 37° C., read-out: AKT2 IC50
T1 construct: expressed in transfected cells; host or cells: HEK293

[3] = target: T2, AKT1 E17K (Homo sapiens, UniProt P31749, E17K); test: Live cell AKT1 E17K target engagement by NanoBRET competitive probe displacement in HEK293 cells; assay type: binding; settings: 2 h at 37° C.
T2 construct: expressed in transfected cells; host or cells: HEK293
Description: Determining live cell AKT1 E17K, AKT1 WT, and AKT2 target engagement by NanoBRET competitive probe displacement. Live cell target engagement assays were performed as described (Vasta, J. D. et al. Cell Chem Biol 2018, 25(11), 206-214). Briefly, HEK293 cells were transfected with plasmids encoding kinase-NanoLuciferase fusion proteins overnight. Cells were then treated with serial dilutions of compound and an ˜EC50 concentration of fluorescently-tagged ATP-competitive tracer (Promega). After incubation for 2 h at 37° C., luciferase substrate and extracellular luciferase inhibitor were added to all wells, and luminescent intensity at 460 nm and 600 nm were measured on a multimode plate-reader. The ratio of E600/E460 was calculated to give the tracer engagement signal (BRET). IC50 values were calculated by fitting BRET values to a log(inhibitor) vs. response Hill equation.

[4] = target: T3, AKT1 WT (Homo sapiens, UniProt P31749); test: Live cell AKT1 WT target engagement by NanoBRET competitive probe displacement in HEK293 cells; assay type: binding; settings: 2 h at 37° C., read-out: AKT1 WT IC50
T3 construct: expressed in transfected cells; host or cells: HEK293

[5] = NanoBRET competitive probe displacement, live HEK293 cells
[6] = NanoBRET live cell target engagement, HEK293 cells

T2 sequence (P31749 whole entry E17K): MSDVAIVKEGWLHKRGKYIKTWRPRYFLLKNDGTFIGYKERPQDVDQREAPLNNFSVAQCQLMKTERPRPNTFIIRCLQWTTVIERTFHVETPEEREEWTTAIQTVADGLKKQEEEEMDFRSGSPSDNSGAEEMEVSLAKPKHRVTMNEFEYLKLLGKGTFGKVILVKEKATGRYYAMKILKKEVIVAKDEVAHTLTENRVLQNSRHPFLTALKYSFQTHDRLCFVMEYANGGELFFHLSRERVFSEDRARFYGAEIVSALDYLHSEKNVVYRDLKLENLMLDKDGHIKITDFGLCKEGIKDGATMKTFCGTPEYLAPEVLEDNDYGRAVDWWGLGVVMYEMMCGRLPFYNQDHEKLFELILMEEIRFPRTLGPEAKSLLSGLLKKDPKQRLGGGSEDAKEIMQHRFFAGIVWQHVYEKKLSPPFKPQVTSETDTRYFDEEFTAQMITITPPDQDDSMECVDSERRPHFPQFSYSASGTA
T1 sequence (P31751 whole entry): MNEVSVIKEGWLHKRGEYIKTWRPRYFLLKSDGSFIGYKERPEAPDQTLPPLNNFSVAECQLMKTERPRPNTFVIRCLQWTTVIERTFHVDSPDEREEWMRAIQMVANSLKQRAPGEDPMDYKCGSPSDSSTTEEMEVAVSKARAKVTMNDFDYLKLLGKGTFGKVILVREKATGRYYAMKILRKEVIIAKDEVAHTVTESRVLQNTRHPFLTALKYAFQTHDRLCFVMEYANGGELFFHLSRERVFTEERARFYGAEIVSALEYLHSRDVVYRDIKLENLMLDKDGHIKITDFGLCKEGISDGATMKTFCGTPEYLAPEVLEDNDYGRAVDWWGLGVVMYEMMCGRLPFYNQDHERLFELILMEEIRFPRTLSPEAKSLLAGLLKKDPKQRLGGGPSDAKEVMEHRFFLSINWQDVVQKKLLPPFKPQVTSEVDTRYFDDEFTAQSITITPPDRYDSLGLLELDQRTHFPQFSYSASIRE
T3 sequence (P31749 whole entry): as the sequence (P31749 whole entry E17K) above, with K17E counted along it

Structure (SMILES) | IC50 [1] | IC50 [2, 5] | IC50 [3, 5] | IC50 [4, 5] | IC50 [2, 6] | IC50 [3, 6] | IC50 [4, 6]
Nc1ncccc1-c1nc2ccc(-n3nccn3)nc2n1-c1ccc2c(c1)CC[C@@H]2NC(=O)c1cnc(C(F)F)s1 [Compound 427] | 1710 nM | 1080 nM | 101 nM | 9.56 nM |  |  | 
Nc1ncccc1-c1nc2ccc(-n3nccn3)nc2n1-c1ccc2c(c1)CC[C@@H]2NC(=O)c1cnc(C(F)F)cn1 [Compound 288] | 3680 nM |  |  |  | > 10000 nM | > 1000 nM | 112 nM
Cc1nc(C(F)F)ccc1C(=O)N[C@H]1CCc2cc(-n3c(-c4cccnc4N)nc4ccc(-n5nccn5)nc43)ccc21 [Compound 392] | > 10000 nM |  |  |  | 5530 nM | > 1000 nM | 41.3 nM
Nc1ncccc1-c1nc2ccc(-n3cccn3)nc2n1-c1ccc2c(c1)CC[C@@H]2NC(=O)c1ccc(-n2cccn2)nc1 [Compound 54, (S)—N-(5-(2-(2-aminopyridin-3-yl)-5-(1H-pyrazol-1-yl)-3H-imidazo[4,5-b]pyridin-3-yl)-2,3-dihydro-1H-inden-1-yl)-6-(1H-pyrazol-1-yl)nicotinamide] | 207 nM |  |  |  | 10.7 nM | 17.4 nM | 12 nM
COc1cnc(C#N)nc1N1CCC(N[C@H]2CCc3cc(-n4c(-c5cccnc5N)nc5ccc(-n6cccn6)nc54)ccc32)CC1 [Cpd 586] |  | 43 nM | 17.3 nM | 6.98 nM |  |  | 
N#Cc1nccc(N2CC(N[C@H]3CCc4cc(-n5c(-c6cccnc6N)nc6ccc(-n7cccn7)nc65)ccc43)C2)n1 [Compound 581] |  | 38.4 nM | 20.8 nM | 6.51 nM |  |  | 
N#Cc1nc(N2CCC(N[C@H]3CCc4cc(-n5c(-c6cccnc6N)nc6ccc(-n7cccn7)nc65)ccc43)CC2)cs1 [Compound 593] |  | 23.7 nM | 22 nM | 4.56 nM |  |  | 
Cc1cnc(C#N)nc1N1CCC(N[C@H]2CCc3cc(-n4c(-c5cccnc5N)nc5ccc(-n6cccn6)nc54)ccc32)CC1 [Compound 585] |  | 10.7 nM | 8.23 nM | 4.77 nM |  |  | 
N#Cc1nccc(C(=O)N2CCC(N[C@H]3CCc4cc(-n5c(-c6cccnc6N)nc6ccc(-n7cccn7)nc65)ccc43)CC2)n1 [Compound 580] |  | 24.4 nM | 11.4 nM | 11.2 nM |  |  | 
N#Cc1nc2c(c(N3CCC(N[C@H]4CCc5cc(-n6c(-c7cccnc7N)nc7ccc(-n8cccn8)nc76)ccc54)CC3)n1)CCC2 [Compound 603] |  | 76.8 nM | 16.5 nM | 7.65 nM |  |  | 
Cc1cc(N2CCC(N[C@H]3CCc4cc(-n5c(-c6cccnc6N)nc6ccc(-n7cccn7)nc65)ccc43)CC2)nc(C#N)n1 [Cpd 584, (S)-4-(4-((5-(2-(2-aminopyridin-3-yl)-5-(1H-pyrazol-1-yl)-3H-imidazo[4,5-b]pyridin-3-yl)-2,3-dihydro-1H-inden-1-yl)amino)piperidin-1-yl)-6-methylpyrimidine-2-carbonitrile] |  | 62.5 nM | 11.8 nM | 6.1 nM |  |  | 
COc1cc(-c2ccc3nc(-c4cccnc4N)n(-c4ccc5c(c4)CC(F)[C@@H]5NC4CCN(C(=O)C5CC5)CC4)c3n2)ccn1 (some centres unmarked) [Compound 543] |  | 1210 nM | 526 nM | 81 nM |  |  | 
N#Cc1ncnc(N2CCC(N[C@H]3CCc4cc(-n5c(-c6cccnc6N)nc6ccc(-n7cccn7)nc65)ccc43)CC2)n1 [Compound 592] |  | 11 nM | 5.5 nM | 4.32 nM |  |  | 
N#Cc1nccc(N2CCC(N[C@@H]3c4ccc(-n5c(-c6cccnc6N)nc6ccc(-n7cccn7)nc65)cc4CC3F)CC2)n1 (some centres unmarked) [Compound 579] |  | 26.6 nM | 9.88 nM | 5.42 nM |  |  | 

The next lines start with the values.

IC50 [1] | IC50 [2, 5] | IC50 [3, 5] | IC50 [4, 5] | IC50 [2, 6] | IC50 [3, 6] | IC50 [4, 6] | Structure (SMILES)
4290 nM |  |  |  | 411 nM | 486 nM | 24.7 nM | Nc1ncccc1-c1nc2ccc(-n3cccn3)nc2n1-c1ccc2c(c1)CC[C@@H]2NC(=O)c1ccnc2c1CCCO2 [Compound 361]
5190 nM |  |  |  | 754 nM | 211 nM | 49.2 nM | Cn1cc(C(=O)N[C@H]2CCc3cc(-n4c(-c5cccnc5N)nc5ccc(-n6cccn6)nc54)ccc32)cn1 [Compound 39, (S)—N-(5-(2-(2-aminopyridin-3-yl)-5-(1H-pyrazol-1-yl)-3H-imidazo[4,5-b]pyridin-3-yl)-2,3-dihydro-1H-inden-1-yl)-1-methyl-1H-pyrazole-4-carboxamide]
631 nM |  |  |  | 40.7 nM | 14.4 nM | 2.84 nM | Nc1ncccc1-c1nc2ccc(-n3cccn3)nc2n1-c1ccc2c(c1)CC[C@@H]2NC(=O)c1ccc(O)cc1 [Compound 42, (S)—N-(5-(2-(2-aminopyridin-3-yl)-5-(1H-pyrazol-1-yl)-3H-imidazo[4,5-b]pyridin-3-yl)-2,3-dihydro-1H-inden-1-yl)-4-hydroxybenzamide]
1710 nM |  |  |  | 132 nM | 120 nM | 7.21 nM | COc1cc(C(=O)N[C@H]2CCc3cc(-n4c(-c5cccnc5N)nc5ccc(-n6cccn6)nc54)ccc32)cc(F)c1F [Compound 3, (S)—N-(5-(2-(2-aminopyridin-3-yl)-5-(1H-pyrazol-1-yl)-3H-imidazo[4,5-b]pyridin-3-yl)-2,3-dihydro-1H-inden-1-yl)-3,4-difluoro-5-methoxybenzamide]
> 10000 nM |  |  |  | 5000 nM | > 1000 nM | 593 nM | CN1CCC(N[C@H]2CCc3cc(-n4c(-c5cccnc5N)nc5ccc(-n6cccn6)nc54)ccc32)CC1 [Compound 274]
 |  |  |  | 8890 nM | > 1000 nM | > 1000 nM | C#CC1(OCC(=O)N[C@H]2CCc3cc(-n4c(-c5cccnc5N)nc5ccc(-n6cccn6)nc54)ccc32)COC1 [Compound 9, N—{(S)-5-[2-(2-amino-3-pyridyl)-5-(1-pyrazolyl)-3H-1,3,4-triazainden-3-yl]-1-indanyl}(3-ethynyl-3-oxetanyloxy)acetamide]
1420 nM |  |  |  | 67.2 nM | 57.9 nM | 7.74 nM | Nc1ncccc1-c1nc2ccc(-n3cccn3)nc2n1-c1ccc2c(c1)CC[C@@H]2NC(=O)c1ccnc2sccc12 [Compound 363]
1630 nM |  |  |  | 43.3 nM | 143 nM | 12.2 nM | Cc1cc(C(F)F)ncc1C(=O)N[C@H]1CCc2cc(-n3c(-c4cccnc4N)nc4ccc(-n5cccn5)nc43)ccc21 [Compound 56, (S)—N-(5-(2-(2-aminopyridin-3-yl)-5-(1H-pyrazol-1-yl)-3H-imidazo[4,5-b]pyridin-3-yl)-2,3-dihydro-1H-inden-1-yl)-6-(difluoromethyl)-4-methylnicotinamide]
 |  |  |  | 4310 nM | > 1000 nM | > 737 nM | CC(=O)N[C@H]1CCc2cc(-n3c(-c4cccnc4N)nc4ccc(-n5cccn5)nc43)ccc21 [Compound 1, (S)—N-(5-(2-(2-aminopyridin-3-yl)-5-(1H-pyrazol-1-yl)-3H-imidazo[4,5-b]pyridin-3-yl)-2,3-dihydro-1H-inden-1-yl)acetamide]
 |  |  |  | > 10000 nM | > 1000 nM | > 1000 nM | CN1C(=O)CCC1CC(=O)N[C@H]1CCc2cc(-n3c(-c4cccnc4N)nc4ccc(-n5cccn5)nc43)ccc21 (mixture of isomers) [Compound 11, N—{(S)-5-[2-(2-amino-3-pyridyl)-5-(1-pyrazolyl)-3H-1,3,4-triazainden-3-yl]-1-indanyl}(1-methyl-5-oxo-2-pyrrolidinyl)acetamide]

Source: patent publication US12624034B2, “Non-covalent modifiers of AKT1 and uses thereof” (Terremoto Biosciences, Inc., priority 2023, dated 2026)
